# Test results taken from ChEMBL document CHEMBL2074058, “Regulation by dexamethasone of P-glycoprotein expression in cultured rat hepatocytes” (FEBS Lett, 1993).
# Tests used:
# [1] = target: Multidrug resistance protein 1a (Rattus norvegicus) (UniProt Q6PSM0); experiment: TP_TRANSPORTER: Western blot, primary hepatocytes; type: functional, cell-based; settings: Hepatocyte
# [2] = target: Multidrug resistance protein 1a (Rattus norvegicus) (UniProt Q6PSM0); experiment: TP_TRANSPORTER: Northern blot from primary hepatocytes; type: functional, cell-based; settings: Hepatocyte
# Chain of Multidrug resistance protein 1a (Rattus norvegicus) (Q6PSM0 as listed by the source): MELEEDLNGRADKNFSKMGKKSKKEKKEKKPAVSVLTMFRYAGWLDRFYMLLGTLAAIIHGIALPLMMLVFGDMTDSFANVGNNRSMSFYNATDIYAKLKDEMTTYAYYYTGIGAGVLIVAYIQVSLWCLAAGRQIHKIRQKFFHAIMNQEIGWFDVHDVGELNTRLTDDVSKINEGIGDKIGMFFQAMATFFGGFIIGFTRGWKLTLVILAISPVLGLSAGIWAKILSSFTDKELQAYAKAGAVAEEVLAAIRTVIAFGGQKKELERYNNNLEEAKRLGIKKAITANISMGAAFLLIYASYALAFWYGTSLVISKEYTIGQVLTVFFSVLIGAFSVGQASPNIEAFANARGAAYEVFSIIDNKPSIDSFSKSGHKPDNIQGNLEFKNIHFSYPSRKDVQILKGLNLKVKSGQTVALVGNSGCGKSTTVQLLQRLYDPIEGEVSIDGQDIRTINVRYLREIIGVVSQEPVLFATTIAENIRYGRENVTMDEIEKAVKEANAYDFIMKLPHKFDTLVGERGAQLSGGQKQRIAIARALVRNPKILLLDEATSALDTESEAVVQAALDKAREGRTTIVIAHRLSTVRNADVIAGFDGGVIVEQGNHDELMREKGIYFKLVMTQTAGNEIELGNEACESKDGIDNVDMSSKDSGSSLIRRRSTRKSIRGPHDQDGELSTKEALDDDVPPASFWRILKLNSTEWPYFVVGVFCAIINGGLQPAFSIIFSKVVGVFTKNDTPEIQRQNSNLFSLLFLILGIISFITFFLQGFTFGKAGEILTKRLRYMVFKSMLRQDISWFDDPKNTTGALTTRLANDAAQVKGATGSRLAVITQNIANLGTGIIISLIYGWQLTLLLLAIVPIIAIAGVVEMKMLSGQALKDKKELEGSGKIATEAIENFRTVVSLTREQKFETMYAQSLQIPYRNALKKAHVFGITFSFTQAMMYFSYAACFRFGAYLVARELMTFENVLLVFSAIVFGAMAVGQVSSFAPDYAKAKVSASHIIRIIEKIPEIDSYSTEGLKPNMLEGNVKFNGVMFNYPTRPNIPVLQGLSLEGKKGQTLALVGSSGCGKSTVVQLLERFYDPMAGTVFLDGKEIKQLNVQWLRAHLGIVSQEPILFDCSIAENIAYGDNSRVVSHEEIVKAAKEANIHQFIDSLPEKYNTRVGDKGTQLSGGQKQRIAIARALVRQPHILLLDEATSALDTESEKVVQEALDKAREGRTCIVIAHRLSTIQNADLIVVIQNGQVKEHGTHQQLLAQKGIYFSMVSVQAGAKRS
compound,measurement,setting,value
C[C@@H]1C[C@H]2[C@@H]3CCC4=CC(=O)C=C[C@]4(C)[C@@]3(F)[C@@H](O)C[C@]2(C)[C@@]1(O)C(=O)CO,Activity,[1],inducer [Decrease]
same,Activity,[2],inducer [Decrease]
